Converted amounts (≈) assume the structure as drawn.
How the values were obtained:
[1] = tested on: Sclerotinia sclerotiorum; test: Antifungal activity against carbendazim-resistant and dimethachlon-resistant Sclerotinia sclerotiorum CZ57-3 assessed as inhibition of mycelial growth after 2 days; type: functional, organism-based; details: CZ57-3, 48 h
[2] = tested on: Sclerotinia sclerotiorum; test: Antifungal activity against carbendazim-resistant and dimethachlon-sensitive Sclerotinia sclerotiorum ZJ288 assessed as inhibition of mycelial growth after 2 days; type: functional, organism-based; details: ZJ288, 48 h
[3] = tested on: Sclerotinia sclerotiorum; test: Antifungal activity against Sclerotinia sclerotiorum in czapek medium assessed as inhibition of mycelial growth after 2 days; type: functional, organism-based; details: 48 h
[4] = tested on: Sclerotinia sclerotiorum; test: Antifungal activity against Sclerotinia sclerotiorum in oilseed rape field assessed as disease control at 80/ha measured 1 week before harvest; type: functional
[5] = tested on: Sclerotinia sclerotiorum; test: Antifungal activity against carbendazim and dimethachlon-sensitive Sclerotinia sclerotiorum YZ114 assessed as inhibition of mycelial growth after 2 days; type: functional, organism-based; details: YZ114, 48 h
[6] = tested on: Sclerotinia sclerotiorum; test: Antifungal activity against carbendazim-resistant and dimethachlon-sensitive Sclerotinia sclerotiorum SZ48 assessed as inhibition of mycelial growth after 2 days; type: functional, organism-based; details: SZ48, 48 h
[7] = tested on: Sclerotinia sclerotiorum; test: Antifungal activity against carbendazim-resistant and dimethachlon-resistant Sclerotinia sclerotiorum ZJ288-2 assessed as inhibition of mycelial growth after 2 days; type: functional, organism-based; details: ZJ288-2, 48 h
[8] = tested on: Sclerotinia sclerotiorum; test: Antifungal activity against carbendazim-resistant and dimethachlon-resistant Sclerotinia sclerotiorum CZ57-1 assessed as inhibition of mycelial growth after 2 days; type: functional, organism-based; details: CZ57-1, 48 h
[9] = tested on: Sclerotinia sclerotiorum; test: Antifungal activity against Sclerotinia sclerotiorum in oilseed rape field assessed as disease control at 187.5/ha measured 1 week before harvest; type: functional
[10] = tested on: Sclerotinia sclerotiorum; test: Antifungal activity against carbendazim and dimethachlon-sensitive Sclerotinia sclerotiorum SZ62 assessed as inhibition of mycelial growth after 2 days; type: functional, organism-based; details: SZ62, 48 h
[11] = tested on: Sclerotinia sclerotiorum; test: Antifungal activity against carbendazim and dimethachlon-sensitive Sclerotinia sclerotiorum SZ47 assessed as inhibition of mycelial growth after 2 days; type: functional, organism-based; details: SZ47, 48 h
[12] = tested on: Sclerotinia sclerotiorum; test: Antifungal activity against Sclerotinia sclerotiorum in PDA plates assessed as inhibition of mycelial growth after 2 days; type: functional, organism-based; details: 48 h
[13] = tested on: Sclerotinia sclerotiorum; test: Antifungal activity against carbendazim-resistant and dimethachlon-resistant Sclerotinia sclerotiorum ZJ288-1 assessed as inhibition of mycelial growth after 2 days; type: functional, organism-based; details: ZJ288-1, 48 h
[14] = tested on: Sclerotinia sclerotiorum; test: Antifungal activity against Sclerotinia sclerotiorum in oilseed rape field assessed as disease control at 250/ha measured 1 week before harvest; type: functional
[15] = tested on: Sclerotinia sclerotiorum; test: Antifungal activity against carbendazim-resistant and dimethachlon-sensitive Sclerotinia sclerotiorum ZJ44 assessed as inhibition of mycelial growth after 2 days; type: functional, organism-based; details: ZJ44, 48 h
[16] = tested on: Sclerotinia sclerotiorum; test: Antifungal activity against carbendazim-resistant and dimethachlon-sensitive Sclerotinia sclerotiorum CZ57 assessed as inhibition of mycelial growth after 2 days; type: functional, organism-based; details: CZ57, 48 h
[17] = tested on: Sclerotinia sclerotiorum; test: Antifungal activity against carbendazim and dimethachlon-sensitive Sclerotinia sclerotiorum YZ112 assessed as inhibition of mycelial growth after 2 days; type: functional, organism-based; details: YZ112, 48 h
[18] = tested on: Sclerotinia sclerotiorum; test: Antifungal activity against Sclerotinia sclerotiorum in synthetic medium assessed as inhibition of mycelial growth after 2 days; type: functional, organism-based; details: 48 h
[19] = tested on: Sclerotinia sclerotiorum; test: Antifungal activity against carbendazim-resistant and dimethachlon-resistant Sclerotinia sclerotiorum CZ57-2 assessed as inhibition of mycelial growth after 2 days; type: functional, organism-based; details: CZ57-2, 48 h
[20] = tested on: Sclerotinia sclerotiorum; test: Antifungal activity against carbendazim-resistant and dimethachlon-sensitive Sclerotinia sclerotiorum YC35 assessed as inhibition of mycelial growth after 2 days; type: functional, organism-based; details: YC35, 48 h
[21] = tested on: Sclerotinia sclerotiorum; test: Antifungal activity against Sclerotinia sclerotiorum in oilseed rape field assessed as disease control at 125/ha measured 1 week before harvest; type: functional
[22] = tested on: Sclerotinia sclerotiorum; test: Antifungal activity against carbendazim-resistant and dimethachlon-sensitive Sclerotinia sclerotiorum ZJ47 assessed as inhibition of mycelial growth after 2 days; type: functional, organism-based; details: ZJ47, 48 h
[23] = tested on: Sclerotinia sclerotiorum; test: Antifungal activity against carbendazim-resistant and dimethachlon-resistant Sclerotinia sclerotiorum ZJ288-3 assessed as inhibition of mycelial growth after 2 days; type: functional, organism-based; details: ZJ288-3, 48 h
[24] = tested on: Sclerotinia sclerotiorum; test: Antifungal activity against carbendazim-resistant and dimethachlon-sensitive Sclerotinia sclerotiorum TZ83 assessed as inhibition of mycelial growth after 2 days; type: functional, organism-based; details: TZ83, 48 h
[25] = tested on: Sclerotinia sclerotiorum; test: Antifungal activity against carbendazim and dimethachlon-sensitive Sclerotinia sclerotiorum YZ116 assessed as inhibition of mycelial growth after 2 days; type: functional, organism-based; details: YZ116, 48 h
[26] = tested on: Sclerotinia sclerotiorum; test: Antifungal activity against Sclerotinia sclerotiorum in oilseed rape field assessed as disease control at 750/ha measured 1 week before harvest; type: functional
[27] = tested on: Sclerotinia sclerotiorum; test: Antifungal activity against Sclerotinia sclerotiorum in oilseed rape field assessed as disease control at 690/ha measured 1 week before harvest; type: functional

## O=C(Nc1ccccc1-c1ccc(Cl)cc1)c1cccnc1Cl [BOSCALID]
[1]
  EC50: 0.163 µg/mL (≈ 0.475 µM)
[2]
  EC50: 0.18 µg/mL (≈ 0.524 µM)
[3]
  EC50: 0.13 µg/mL (≈ 0.379 µM)
[4]
  Activity: 49.7%
[5]
  EC50: 0.195 µg/mL (≈ 0.568 µM)
[6]
  EC50: 0.168 µg/mL (≈ 0.489 µM)
[7]
  EC50: 0.126 µg/mL (≈ 0.367 µM)
[8]
  EC50: 0.115 µg/mL (≈ 0.335 µM)
[9]
  Activity: 69%
[10]
  EC50: 0.17 µg/mL (≈ 0.495 µM)
[11]
  EC50: 0.181 µg/mL (≈ 0.527 µM)
[12]
  EC50: 0.17 µg/mL (≈ 0.495 µM)
[13]
  EC50: 0.195 µg/mL (≈ 0.568 µM)
[14]
  Activity: 75.1%
[15]
  EC50: 0.223 µg/mL (≈ 0.65 µM)
[16]
  EC50: 0.186 µg/mL (≈ 0.542 µM)
[17]
  EC50: 0.211 µg/mL (≈ 0.615 µM)
[18]
  EC50: 0.12 µg/mL (≈ 0.35 µM)
[19]
  EC50: 0.183 µg/mL (≈ 0.533 µM)
[20]
  EC50: 0.195 µg/mL (≈ 0.568 µM)
[21]
  Activity: 65.2%
[22]
  EC50: 0.188 µg/mL (≈ 0.548 µM)
[23]
  EC50: 0.262 µg/mL (≈ 0.763 µM)
[24]
  EC50: 0.19 µg/mL (≈ 0.554 µM)
[25]
  EC50: 0.195 µg/mL (≈ 0.568 µM)

## COC(=O)Nc1nc2ccccc2[nH]1 [CARBENDAZIM]
[1]
  EC50: > 100 µg/mL
[2]
  EC50: 0.147 µg/mL (≈ 0.769 µM)
[5]
  EC50: 0.134 µg/mL (≈ 0.701 µM)
[6]
  EC50: > 100 µg/mL
[7]
  EC50: > 100 µg/mL
[8]
  EC50: > 100 µg/mL
[10]
  EC50: 0.186 µg/mL (≈ 0.973 µM)
[26]
  Activity: 18.9%
[11]
  EC50: 0.177 µg/mL (≈ 0.926 µM)
[13]
  EC50: > 100 µg/mL
[15]
  EC50: > 100 µg/mL
[16]
  EC50: 0.168 µg/mL (≈ 0.879 µM)
[17]
  EC50: 0.106 µg/mL (≈ 0.554 µM)
[19]
  EC50: > 100 µg/mL
[20]
  EC50: > 100 µg/mL
[22]
  EC50: > 100 µg/mL
[23]
  EC50: > 100 µg/mL
[24]
  EC50: > 100 µg/mL
[25]
  EC50: 0.137 µg/mL (≈ 0.717 µM)

## O=C1CCC(=O)N1c1cc(Cl)cc(Cl)c1 [DIMETHACHLON]
[1]
  EC50: 125 µg/mL (≈ 511 µM)
[2]
  EC50: 0.397 µg/mL (≈ 1.63 µM)
[5]
  EC50: 0.365 µg/mL (≈ 1.5 µM)
[6]
  EC50: 0.364 µg/mL (≈ 1.49 µM)
[7]
  EC50: 86.8 µg/mL (≈ 356 µM)
[8]
  EC50: 166 µg/mL (≈ 682 µM)
[10]
  EC50: 0.351 µg/mL (≈ 1.44 µM)
[11]
  EC50: 0.321 µg/mL (≈ 1.32 µM)
[13]
  EC50: 92.4 µg/mL (≈ 378 µM)
[15]
  EC50: 0.317 µg/mL (≈ 1.3 µM)
[16]
  EC50: 0.406 µg/mL (≈ 1.66 µM)
[27]
  Activity: 44.6%
[17]
  EC50: 0.401 µg/mL (≈ 1.64 µM)
[19]
  EC50: 152 µg/mL (≈ 622 µM)
[20]
  EC50: 0.306 µg/mL (≈ 1.25 µM)
[22]
  EC50: 0.367 µg/mL (≈ 1.5 µM)
[23]
  EC50: 68 µg/mL (≈ 279 µM)
[24]
  EC50: 0.335 µg/mL (≈ 1.37 µM)
[25]
  EC50: 0.346 µg/mL (≈ 1.42 µM)
